Measured values as given in ChEMBL document CHEMBL3286112, “Novel aza-analogous ergoline derived scaffolds as potent serotonin 5-HT₆ and dopamine D₂ receptor ligands” (J Med Chem, 2014).
pKi: −log10 of the molar value. The source made the active and inactive calls. The calls are words filed in the database; no cut-off is given here.

Tests used:
D(2) dopamine receptor [1] = molecular target: T1, D(2) dopamine receptor (Homo sapiens, UniProt P14416); assay: Displacement of [3H]raclopride from human dopamine D2L receptor expressed in CHOK1a cell membrane after 180 mins by scintillation counting analysis; type: cell membranes; conditions: for pKi: read-out: Ki; for Ki: read-out: pKi (converted)
T1 sequence (P14416 whole entry): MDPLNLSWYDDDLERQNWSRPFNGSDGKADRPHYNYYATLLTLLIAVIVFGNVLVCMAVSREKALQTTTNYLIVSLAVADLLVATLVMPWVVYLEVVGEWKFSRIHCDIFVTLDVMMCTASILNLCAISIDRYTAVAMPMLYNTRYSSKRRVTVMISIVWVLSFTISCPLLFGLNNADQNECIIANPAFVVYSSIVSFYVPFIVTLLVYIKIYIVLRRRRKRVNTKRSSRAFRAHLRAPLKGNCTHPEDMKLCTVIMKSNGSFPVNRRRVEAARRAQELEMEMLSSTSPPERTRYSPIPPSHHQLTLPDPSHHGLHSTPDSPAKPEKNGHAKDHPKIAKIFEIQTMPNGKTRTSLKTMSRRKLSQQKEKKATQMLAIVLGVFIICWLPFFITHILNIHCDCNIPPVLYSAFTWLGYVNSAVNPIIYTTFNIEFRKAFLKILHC

[2] = Clearance in human; type: ADME, organism-based; conditions: in vivo
D(2) dopamine receptor [3] = molecular target: T1, D(2) dopamine receptor; assay: Intrinsic activity at human dopamine D2L receptor expressed in CHOK1a cell membrane assessed as [125I]-cAMP accumulation after 20 mins; type: functional, cell-based
[4] = molecular target: T2, 5-hydroxytryptamine receptor 2C (Homo sapiens, UniProt P28335); assay: Displacement of [3H]5-HT from 5-HT2C receptor (unknown origin) expressed in hamster AV12 cells; type: cell-based
T2 sequence (P28335 whole entry): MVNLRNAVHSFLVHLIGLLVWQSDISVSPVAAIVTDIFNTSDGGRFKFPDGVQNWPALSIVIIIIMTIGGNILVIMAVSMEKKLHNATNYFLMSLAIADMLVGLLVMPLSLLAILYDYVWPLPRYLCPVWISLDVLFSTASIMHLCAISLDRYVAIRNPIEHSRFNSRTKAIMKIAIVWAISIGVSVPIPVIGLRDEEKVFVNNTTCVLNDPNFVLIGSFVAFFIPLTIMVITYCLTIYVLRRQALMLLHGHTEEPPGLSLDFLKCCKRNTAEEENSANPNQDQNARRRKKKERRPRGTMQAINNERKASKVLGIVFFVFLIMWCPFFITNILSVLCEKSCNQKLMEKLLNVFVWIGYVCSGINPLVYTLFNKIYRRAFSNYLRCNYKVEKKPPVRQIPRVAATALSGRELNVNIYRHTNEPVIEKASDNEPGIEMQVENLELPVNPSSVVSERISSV

[5] = molecular target: T3, 5-hydroxytryptamine receptor 6 (Homo sapiens, UniProt P50406); assay: Displacement of [3H]LSD from human 5-HT6 receptor expressed in human HeLa cells after 1 hr by scintillation spectroscopic analysis; type: cell-based
T3 sequence (P50406 whole entry): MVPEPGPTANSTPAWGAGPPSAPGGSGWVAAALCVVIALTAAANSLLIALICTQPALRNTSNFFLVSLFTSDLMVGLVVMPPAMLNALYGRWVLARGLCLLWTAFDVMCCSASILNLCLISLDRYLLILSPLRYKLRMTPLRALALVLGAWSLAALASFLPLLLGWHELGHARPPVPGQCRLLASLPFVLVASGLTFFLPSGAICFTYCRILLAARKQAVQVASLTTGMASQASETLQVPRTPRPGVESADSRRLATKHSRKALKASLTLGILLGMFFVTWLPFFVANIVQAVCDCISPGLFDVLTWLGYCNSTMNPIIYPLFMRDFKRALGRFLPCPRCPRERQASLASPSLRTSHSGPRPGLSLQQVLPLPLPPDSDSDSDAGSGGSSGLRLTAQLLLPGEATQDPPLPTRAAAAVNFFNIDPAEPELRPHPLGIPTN

tsA201 = assay: Selectivity ratio of Ki for human 5-HT2C receptor expressed in human tsA201 cells to Ki for human 5-HT6 receptor expressed in hamster BHK cells; type: cell-based
[6] = molecular target: T2, 5-hydroxytryptamine receptor 2C; assay: Displacement of [3H]mesulergine from human 5-HT2C receptor expressed in human tsA201 cells after 1 hr by scintillation counting analysis; type: cell-based
[7] = molecular target: T3, 5-hydroxytryptamine receptor 6; assay: Antagonist activity at human 5-HT6 receptor expressed in CHO cells assessed as reduction in serotonin-induced cAMP accumulation after 30 mins by HTRF assay; type: functional, cell-based
[8] = molecular target: T3, 5-hydroxytryptamine receptor 6; assay: Displacement of [3H]LSD from human 5-HT6 receptor expressed in hamster BHK cells after 60 mins by scintillation counting analysis; type: cell-based

SMILES | pKi (D(2) dopamine receptor [1]) | pKi [6] | pKi [8] | further results
CN1CCN2c3cccc4[nH]cc(c34)CC2C1 (configuration not stated) | 6.18 |  |  | 
Fc1ccc2c(CCNCc3cccc(OCC(F)(F)C(F)F)c3)c[nH]c2c1 [IDALOPIRDINE] |  |  |  | pKi [4]: 6.60
CCCCN1CCN2c3cccc4[nH]cc(c34)CC2C1 (configuration not stated) | 6.96 |  |  | 
CC(C)CCN1CCN2c3cccc4[nH]cc(c34)CC2C1 (configuration not stated) | 7.62 |  |  | Intrinsic activity (D(2) dopamine receptor [3]): 96
CN1C[C@@H](NS(=O)(=O)N(C)C)C[C@@H]2c3cccc4c3c(cn4C)C[C@H]21 [MESULERGINE] |  |  |  | pKi ([5]; read-out: Ki): 6.11
CCCCCN1CCN2c3cccc4[nH]cc(c34)CC2C1 (configuration not stated) | 7.01 |  |  | 
CCN1CCN2c3cccc4[nH]cc(c34)CC2C1 (configuration not stated) | 6.85 |  |  | 
CC(C)CN1CCN2c3cccc4[nH]cc(c34)CC2C1 (configuration not stated) | 6.51 |  |  | 
CCCN1CCN2c3cccc4[nH]cc(c34)CC2C1 (configuration not stated) | 6.24 |  |  | 
COc1ccc(NS(=O)(=O)c2sc3ccc(Cl)cc3c2C)cc1N1CCNCC1 |  |  |  | pKi [4]: 6.11
c1cc2c3c(c[nH]c3c1)CC1CN(CC3CCCCC3)CCN21 (configuration not stated) | 7.27 |  |  | Intrinsic activity (D(2) dopamine receptor [3]): 95
O=S(=O)(c1ccccc1)c1cnc2c(N3CCNCC3)cccc2c1 |  |  |  | Activity [7]: Active
c1cc2c3c(c[nH]c3c1)CC1CNCCN21 (configuration not stated) | 5.68 |  |  | 
CNc1cc(NS(=O)(=O)c2ccc(N)cc2)cc(NC)n1 |  |  |  | Ki ([5]; read-out: pKi (converted)): 12.3 nM

Now from value to compound, other results behind:

pKi (D(2) dopamine receptor [1]) | pKi [6] | pKi [8] | SMILES | further results
9.19 |  |  | c1ccc(-c2cccc(CN3CCN4c5cccc6[nH]cc(c56)CC4C3)c2)cc1 (configuration not stated) | clearance [2]: 65 mL/min/kg; Intrinsic activity (D(2) dopamine receptor [3]): 35; Ki (D(2) dopamine receptor [1]): 0.229 nM
6.85 |  |  | c1ccc(-c2ccc(CN3CCN4c5cccc6[nH]cc(c56)CC4C3)cc2)cc1 (configuration not stated) | 
6.89 |  |  | c1ccc(CN2CCN3c4cccc5[nH]cc(c45)CC3C2)cc1 (configuration not stated) | Intrinsic activity (D(2) dopamine receptor [3]): 51
 | 6.62 | 9.12 | O=S(=O)(c1cccc(F)c1)n1cc2c3c(cccc31)N1CCNCC1C2 (configuration not stated) | clearance [2]: 13.3 mL/min/kg; Ratio Ki (tsA201): 250; Activity [7]: Active
6.35 |  |  | c1ccc(-c2ccccc2CN2CCN3c4cccc5[nH]cc(c45)CC3C2)cc1 (configuration not stated) | Ki (D(2) dopamine receptor [1]): 200 nM
 | 6.46 |  | O=S(=O)(c1ccccc1F)n1cc2c3c(cccc31)N1CCNCC1C2 (configuration not stated) | 
 | 6.55 | 8.05 | O=S(=O)(c1ccccc1)n1cc2c3c(cccc31)N1CCNCC1C2 (configuration not stated) | 
 | 6.11 | 7.02 | Cc1ccc(S(=O)(=O)n2cc3c4c(cccc42)N2CCNCC2C3)cc1 (configuration not stated) | 
 | 6.47 | 7.33 | O=S(=O)(c1cccc(Cl)c1)n1cc2c3c(cccc31)N1CCNCC1C2 (configuration not stated) | 
 | 6.34 | 7.62 | Cc1cccc(S(=O)(=O)n2cc3c4c(cccc42)N2CCNCC2C3)c1 (configuration not stated) | 
 | 6.33 | 7.68 | Cc1ccccc1S(=O)(=O)n1cc2c3c(cccc31)N1CCNCC1C2 (configuration not stated) | 
 | 5.54 | 6.77 | COc1ccc(S(=O)(=O)n2cc3c4c(cccc42)N2CCNCC2C3)cc1 (configuration not stated) | 
 | 6.43 | 7.62 | COc1cccc(S(=O)(=O)n2cc3c4c(cccc42)N2CCNCC2C3)c1 (configuration not stated) | 
 | 6.06 | 7.59 | COc1ccccc1S(=O)(=O)n1cc2c3c(cccc31)N1CCNCC1C2 (configuration not stated) | 
 | 5.96 | 7.54 | O=S(=O)(c1ccc(F)cc1)n1cc2c3c(cccc31)N1CCNCC1C2 (configuration not stated) | 
 | 6.34 |  | O=S(=O)(c1ccccc1Cl)n1cc2c3c(cccc31)N1CCNCC1C2 (configuration not stated) | 
 | 5.92 | 6.74 | O=S(=O)(c1ccc(Cl)cc1)n1cc2c3c(cccc31)N1CCNCC1C2 (configuration not stated) | 
